Experimental data: patent publication US20100184869A1, “METHOD AND KIT FOR DETERMINING SIRTUIN MODULATING AGENTS, SIRTUIN MODULATING PROCEDURE, SIRTUIN MODULATING COMPOUNDS AND COMPOSITIONS INCLUDING THE SAME” (priority 2008, published 2010)

Tested on: SIRT1 gene expression
Assay: semi-quantitative RT-PCR of sirtuin mRNA/β-actin mRNA ratio in zebrafish tissues after resveratrol
Assay type: in vivo, zebrafish (Danio rerio)
Settings: FIG. 3
Excerpt: On the Y axis, I is the rate of mRNA X, a is muscle and b is liver.
The method for determining modulating agents of sirtuin gene expression is comprised of the following stages: • a) contacting cells comprising at least on gene of the sirtuin family and the β-actin gene, with a modulating agent; • b) determining the relative abundance of mRNA of the sirtuin-family gene; • c) determining the relative abundance of the mRNA of the β-actin gene; and • d) determining the mRNA SIRTImRNA β-actin ratio.
The mapping of the pattern and levels of expression in each one of the eight genes related to zebrafish sirtuin was determined in eight tissues (spleen, gills, brain, heart, liver, female sexual organs and male sexual organs, skeletal muscle and kidneys), by way of the analysis of semi-quantitative RT-PCR comparing the relative abundance of mRNA of each one of the genes related to sirtuins with the mRNA of the gene codifying for β-actin (mean ±E.P.) (FIG. 2 and Table 2).

Oc1ccc(/C=C/c2cc(O)cc(O)c2)cc1 [resveratrol, 3.4′,5-trihydroxy-trans-stilbene]
SIRT1 gene expression (mRNA SIRT/mRNA β-actin ratio) (zebrafish liver): significant increase | SIRT1 gene expression (mRNA SIRT/mRNA β-actin ratio) (zebrafish skeletal muscle): significant increase
